In ChEMBL document CHEMBL5046228 (Eur J Med Chem, 2022):

Tests used:
[1] = target: Epidermal growth factor receptor (Homo sapiens, UniProt P00533, C797S/T790M); assay: Inhibition of EGFR T790M/C797S double mutant (unknown origin) using flurogenic substrate in presence of ATP by HTRF assay
[2] = Selectivity index, ratio of IC50 Inhibition of wild type EGFR (unknown origin) to IC50 for Inhibition of EGFR T790M/C797S double mutant (unknown origin)
NCI-H1975 [3] = assay: cells; assay type: functional, cell-based; conditions: Homo sapiens, NCI-H1975, 72 h
NCI-H1299 [4] = assay: Induction of cell cycle arrest in human NCI-H1299 cells assessed as accumulation at G2/M phase at 0.02 uM after 36 hrs by PI staining based flow cytometry analysis (reference value: 5.6%); assay type: functional
NCI-H1299 [5] = assay: Induction of cell cycle arrest in human NCI-H1299 cells assessed as accumulation at G0/G1 phase at 0.1 uM after 36 hrs by PI staining based flow cytometry analysis (reference value: 70.2%); assay type: functional
NCI-H1299 [6] = assay: Induction of cell cycle arrest in human NCI-H1299 cells assessed as accumulation at S phase at 0.1 uM after 36 hrs by PI staining based flow cytometry analysis (reference value: 24.8%); assay type: functional
NCI-H1299 [7] = assay: Induction of cell cycle arrest in human NCI-H1299 cells assessed as accumulation at G2/M phase at 0.5 uM after 36 hrs by PI staining based flow cytometry analysis (reference value: 5.6%); assay type: functional
NCI-H1299 [8] = assay: Induction of cell cycle arrest in human NCI-H1299 cells assessed as accumulation at G2/M phase at 2.5 uM after 36 hrs by PI staining based flow cytometry analysis (reference value: 5.6%); assay type: functional
NCI-H1299 [9] = assay: Induction of cell cycle arrest in human NCI-H1299 cells assessed as accumulation at S phase at 2.5 uM after 36 hrs by PI staining based flow cytometry analysis (reference value: 24.8%); assay type: functional
NCI-H1975 [10] = assay: Induction of cell cycle arrest in human NCI-H1975 cells assessed as accumulation at G0/G1 phase at 0.02 uM after 36 hrs by PI staining based flow cytometry analysis (reference value: 24.2%); assay type: functional
NCI-H1975 [11] = assay: Induction of cell cycle arrest in human NCI-H1975 cells assessed as accumulation at G0/G1 phase at 0.1 uM after 36 hrs by PI staining based flow cytometry analysis (reference value: 24.2%); assay type: functional
NCI-H1975 [12] = assay: Induction of cell cycle arrest in human NCI-H1975 cells assessed as accumulation at G2/M phase at 0.1 uM after 36 hrs by PI staining based flow cytometry analysis (reference value: 43.1%); assay type: functional
NCI-H1975 [13] = assay: Induction of cell cycle arrest in human NCI-H1975 cells assessed as accumulation at G0/G1 phase at 0.5 uM after 36 hrs by PI staining based flow cytometry analysis (reference value: 24.2%); assay type: functional
NCI-H1975 [14] = assay: Induction of cell cycle arrest in human NCI-H1975 cells assessed as accumulation at G2/M phase at 0.5 uM after 36 hrs by PI staining based flow cytometry analysis (reference value: 43.1%); assay type: functional
NCI-H1975 [15] = assay: Induction of cell cycle arrest in human NCI-H1975 cells assessed as accumulation at G0/G1 phase at 2.5 uM after 36 hrs by PI staining based flow cytometry analysis (reference value: 24.2%); assay type: functional
NCI-H1975 [16] = assay: Induction of cell cycle arrest in human NCI-H1975 cells assessed as accumulation at G2/M phase at 2.5 uM after 36 hrs by PI staining based flow cytometry analysis (reference value: 43.1%); assay type: functional
NCI-H1975 [17] = assay: Induction of cell cycle arrest in human NCI-H1975 cells assessed as accumulation at S phase at 2.5 uM after 36 hrs by PI staining based flow cytometry analysis (reference value: 32.7 %); assay type: functional
NCI-H1299 [18] = assay: Induction of apoptosis in human NCI-H1299 cells assessed as increase in early apoptotic cells at 0.02 uM after 36 hrs by annexin-V-FITC/PI staining based flow cytometric analysis (reference value: 0.79%); assay type: functional
NCI-H1299 [19] = assay: Induction of apoptosis in human NCI-H1299 cells assessed as increase in early apoptotic cells at 0.1 uM after 36 hrs by annexin-V-FITC/PI staining based flow cytometric analysis (reference value: 0.79%); assay type: functional
NCI-H1299 [20] = assay: Induction of apoptosis in human NCI-H1299 cells assessed as increase in viable cells at 0.5 uM after 36 hrs by annexin-V-FITC/PI staining based flow cytometric analysis (reference value: 94.1%); assay type: functional
NCI-H1299 [21] = assay: Induction of apoptosis in human NCI-H1299 cells assessed as increase in early apoptotic cells at 2.5 uM after 36 hrs by annexin-V-FITC/PI staining based flow cytometric analysis (reference value: 0.79%); assay type: functional
NCI-H1299 [22] = assay: Induction of apoptosis in human NCI-H1299 cells assessed as increase in late apoptotic cells at 2.5 uM after 36 hrs by annexin-V-FITC/PI staining based flow cytometric analysis (reference value: 4.39%); assay type: functional
NCI-H1299 [23] = assay: Induction of apoptosis in human NCI-H1299 cells assessed as increase in necrotic cells at 2.5 uM after 36 hrs by annexin-V-FITC/PI staining based flow cytometric analysis (reference value: 0.75%); assay type: functional
NCI-H1975 [24] = assay: Induction of apoptosis in human NCI-H1975 cells assessed as increase in viable cells at 0.02 uM after 36 hrs by annexin-V-FITC/PI staining based flow cytometric analysis (reference value: 94.6%); assay type: functional
NCI-H1975 [25] = assay: Induction of apoptosis in human NCI-H1975 cells assessed as increase in early apoptotic cells at 0.02 uM after 36 hrs by annexin-V-FITC/PI staining based flow cytometric analysis (reference value: 1.24%); assay type: functional
NCI-H1975 [26] = assay: Induction of apoptosis in human NCI-H1975 cells assessed as increase in late apoptotic cells at 0.02 uM after 36 hrs by annexin-V-FITC/PI staining based flow cytometric analysis (reference value: 3.85%); assay type: functional
NCI-H1975 [27] = assay: Induction of apoptosis in human NCI-H1975 cells assessed as increase in necrotic cells at 0.1 uM after 36 hrs by annexin-V-FITC/PI staining based flow cytometric analysis (reference value: 0.35%); assay type: functional
NCI-H1975 [28] = assay: Induction of apoptosis in human NCI-H1975 cells assessed as increase in viable cells at 0.5 uM after 36 hrs by annexin-V-FITC/PI staining based flow cytometric analysis (reference value: 94.6%); assay type: functional
NCI-H1975 [29] = assay: Induction of apoptosis in human NCI-H1975 cells assessed as increase in early apoptotic cells at 0.5 uM after 36 hrs by annexin-V-FITC/PI staining based flow cytometric analysis (reference value: 1.24%); assay type: functional
NCI-H1975 [30] = assay: Induction of apoptosis in human NCI-H1975 cells assessed as increase in necrotic cells at 0.5 uM after 36 hrs by annexin-V-FITC/PI staining based flow cytometric analysis (reference value: 0.35%); assay type: functional
NCI-H1975 [31] = assay: Induction of apoptosis in human NCI-H1975 cells assessed as increase in late apoptotic cells at 2.5 uM after 36 hrs by annexin-V-FITC/PI staining based flow cytometric analysis (reference value: 3.85%); assay type: functional
in vitro = conditions: human

Chain of Epidermal growth factor receptor (P00533 25-1210 T790M/C797S limits assumed): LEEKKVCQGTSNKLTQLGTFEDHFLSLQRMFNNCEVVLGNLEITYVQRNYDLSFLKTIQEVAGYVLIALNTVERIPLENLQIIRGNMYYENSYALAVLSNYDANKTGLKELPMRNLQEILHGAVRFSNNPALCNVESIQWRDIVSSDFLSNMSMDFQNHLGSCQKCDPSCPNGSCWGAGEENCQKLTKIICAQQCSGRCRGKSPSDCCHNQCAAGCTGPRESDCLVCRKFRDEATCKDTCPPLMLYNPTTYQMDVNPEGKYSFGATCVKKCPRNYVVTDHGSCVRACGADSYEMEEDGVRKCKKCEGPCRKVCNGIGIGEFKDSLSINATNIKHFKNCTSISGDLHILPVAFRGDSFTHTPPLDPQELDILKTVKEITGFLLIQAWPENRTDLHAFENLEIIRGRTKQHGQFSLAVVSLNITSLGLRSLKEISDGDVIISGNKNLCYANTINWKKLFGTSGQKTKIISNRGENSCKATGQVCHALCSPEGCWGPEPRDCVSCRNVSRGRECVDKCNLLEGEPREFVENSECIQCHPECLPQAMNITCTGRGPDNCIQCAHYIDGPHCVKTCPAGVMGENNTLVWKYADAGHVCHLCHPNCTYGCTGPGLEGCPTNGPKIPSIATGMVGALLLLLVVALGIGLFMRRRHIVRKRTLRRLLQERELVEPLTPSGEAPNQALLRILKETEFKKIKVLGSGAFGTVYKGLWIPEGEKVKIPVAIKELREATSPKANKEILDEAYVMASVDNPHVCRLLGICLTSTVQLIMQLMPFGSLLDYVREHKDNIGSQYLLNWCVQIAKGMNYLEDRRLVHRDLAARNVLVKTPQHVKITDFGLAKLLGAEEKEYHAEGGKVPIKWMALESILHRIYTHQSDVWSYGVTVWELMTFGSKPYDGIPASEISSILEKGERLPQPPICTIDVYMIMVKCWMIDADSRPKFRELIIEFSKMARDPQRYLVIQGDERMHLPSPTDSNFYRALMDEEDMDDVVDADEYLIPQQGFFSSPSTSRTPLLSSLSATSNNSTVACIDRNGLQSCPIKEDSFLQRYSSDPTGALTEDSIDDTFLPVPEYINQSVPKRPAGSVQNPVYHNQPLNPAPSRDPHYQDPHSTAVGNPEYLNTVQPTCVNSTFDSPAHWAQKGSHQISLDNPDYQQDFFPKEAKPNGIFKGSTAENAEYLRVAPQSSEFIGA

Question: With `C#CCN(C)CCN(C)c1cc(OC)c(Nc2nccc(Nc3cn(C)c4ccccc34)n2)cc1NC(=O)C=C` as the molecule, how does the IC50 [1] read?
Answer: 4.01 nM

Question: And the Ratio IC50 [2]?
Answer: > 2490

Question: What about the IC50 (NCI-H1975 [3]) of the same molecule?
Answer: 2.58 nM

Question: And the Activity (NCI-H1299 [4])?
Answer: 6.8%

Question: And the Activity (NCI-H1299 [5])?
Answer: 70.6%

Question: And the Activity (NCI-H1299 [6])?
Answer: 23.7%

Question: And the Activity (NCI-H1299 [7])?
Answer: 6%

Question: And the Activity (NCI-H1299 [8])?
Answer: 7.8%

Question: And the Activity (NCI-H1299 [9])?
Answer: 24.7%

Question: And the Activity (NCI-H1975 [10])?
Answer: 22.5%

Question: And the Activity (NCI-H1975 [11])?
Answer: 19.1%

Question: And the Activity (NCI-H1975 [12])?
Answer: 58.2%

Question: What about the Activity (NCI-H1975 [13]) of the same molecule?
Answer: 18.3%

Question: What about the Activity (NCI-H1975 [14]) of the same molecule?
Answer: 62.6%

Question: What about the Activity (NCI-H1975 [15]) of the same molecule?
Answer: 17%

Question: And the Activity (NCI-H1975 [16])?
Answer: 64.6%

Question: And the Activity (NCI-H1975 [17])?
Answer: 18.4%

Question: And the Activity (NCI-H1299 [18])?
Answer: 1.05%

Question: What about the Activity (NCI-H1299 [19]) of the same molecule?
Answer: 1.06%

Question: And the Activity (NCI-H1299 [20])?
Answer: 92.6%

Question: What about the Activity (NCI-H1299 [21]) of the same molecule?
Answer: 0.95%

Question: And the Activity (NCI-H1299 [22])?
Answer: 6.35%

Question: And the Activity (NCI-H1299 [23])?
Answer: 0.6%

Question: What about the Activity (NCI-H1975 [24]) of the same molecule?
Answer: 94.9%

Question: And the Activity (NCI-H1975 [25])?
Answer: 1.98%

Question: What about the Activity (NCI-H1975 [26]) of the same molecule?
Answer: 3.09%

Question: What about the Activity (NCI-H1975 [27]) of the same molecule?
Answer: 0.019%

Question: And the Activity (NCI-H1975 [28])?
Answer: 79.2%

Question: What about the Activity (NCI-H1975 [29]) of the same molecule?
Answer: 12.2%

Question: What about the Activity (NCI-H1975 [30]) of the same molecule?
Answer: 0.021%

Question: And the Activity (NCI-H1975 [31])?
Answer: 7.25%

Question: What about the selectivity ratio (in vitro) of the same molecule?
Answer: 27500
